Consider 20 molecules from US9670204B2, “Compounds and pharmaceutical compositions thereof for the treatment of inflammatory disorders” (Galapagos NV, priority 2013, dated 2017).

Some results are limits rather than exact numbers.

In the experiment the target is hENPP2 (UniProtKB/SwissProt Q13822) (Homo sapiens (Human), UniProt Q13822). Description: hENPP2 biochemical assay, LPC as substrate. To be noted: LPC (palmitoyl 16:0) as substrate. How it is done: The principle of the assay consists in quantifying the released choline with an enzymatic method using choline oxidase and peroxidase. Choline oxydation by choline oxydase releases betaine and peroxide. The latter is quantified in presence of HRP that converts the peroxide detection agent TOOS and 4-aminoantipyrine into quinoneimine dye. The appearance of quinoneimine dye is measured spectrophotometrically at 555 nm and is proportional to the amount of choline released by ENPP2. Inhibition of ENPP2 will result in a decrease of the signal.
Compound IC50 values are determined in a hENPP2 (UniProtKB/SwissProt Sequence ref Q13822) biochemical assay using LPC as substrate.
The enzyme is diluted in 50 mM Tris-HCl pH 8.5, 500 mM NaCl, 5 mM KCl, 10 mM CaCl2, 0.1% fatty acid free BSA in a total volume of 10 μL. the reaction is started by the addition of 10 μL of 150 μM LPC (palmitoyl 16:0) diluted in the same buffer as described above and the mixture is incubated at 37° C. for 30 min. The reaction is terminated and choline quantified by the addition of a 25 μL of a mixture containing 0.6 U/mL of choline oxidase, 0.6 U/mL of peroxydase, 1.8 mM TOOS, 1.2 mM amino-antipyrine, 20 mM EGTA (stop-developer solution) diluted in the buffer described above. […] is read on the Envision after an incubation of 30 min at room temperature (Excitation 555 nm, excitation light=70%).
In turn, `CCc1nc2ccc(N3CCN(CC(N)=O)CC3)cn2c1N(C)c1nc(-c2ccc(F)cc2)cs1` [Compound 33, 2-(4-(2-ethyl-3-((4-(4-fluorophenyl)thiazol-2-yl)(methyl)amino)imidazo[1,2-a]pyridin-6-yl)piperazin-1-yl)acetamide] showed an IC50 of 500 to 1000 nM.

Take `CCc1nc2ccc(N3CCN(CC(=O)N4CC(F)C4)CC3)cn2c1N(C)c1nc(-c2ccc(F)cc2C#N)cs1` [Compound 164, 2-(2-((2-ethyl-6-(4-(2-(3-fluoroazetidin-1-yl)-2-oxoethyl)piperazin-1-yl)imidazo[1,2-a]pyridin-3-yl)(methyl)amino)thiazol-4-yl)-5-fluorobenzonitrile]: the IC50 lay within 0.01 to 100 nM.

Turning to `CCc1nc2ccc(N3CCN(CC(=O)N4CC(CO)C4)CC3)cn2c1N(C)c1nc(-c2ccc(F)cc2)c(C#N)s1` [Compound 139, 2-((2-ethyl-6-(4-(2-(3-(hydroxymethyl)azetidin-1-yl)-2-oxoethyl)piperazin-1-yl)imidazo[1,2-a]pyridin-3-yl)(methyl)amino)-4-(4-fluorophenyl) thiazole-5-carbonitrile], the IC50 fell in the range of 0.01 to 100 nM. The figure for `CCc1nc2ccc(N3CCN(CC(=O)NC)CC3)cn2c1N(C)c1nc(-c2ccc(F)cc2C#N)cs1` [Compound 169, 2-(4-(3-((4-(2-cyano-4-fluorophenyl)thiazol-2-yl)(methyl)amino)-2-ethylimidazo[1,2-a]pyridin-6-yl)piperazin-1-yl)-N-methylacetamide] is 0.01 to 100 nM. To `CCc1nc2ccc(C3CCN(S(C)(=O)=O)CC3)cn2c1N(C)c1nc(-c2ccc(F)cc2)c(C(=O)OC)s1` [Compound 104, methyl 2-((2-ethyl-6-(1-(methylsulfonyl)piperidin-4-yl)imidazo [1,2-a]pyridin-3-yl)(methyl)amino)-4-(4-fluorophenyl)thiazole-5-carboxylate] belongs above 1000 nM; to `CCc1nc2ccc(N3CCN(CC(=O)N4CCOCC4)CC3)cn2c1N(C)c1nc(-c2ccc(F)cc2)cs1` [Compound 32, 2-(4-(2-ethyl-3-((4-(4-fluorophenyl)thiazol-2-yl)(methyl)amino)imidazo[1,2-a]pyridin-6-yl)piperazin-1-yl)-1-morpholinoethanone], 100 to 500 nM.

Regarding `CCc1nc2ccc(C3CCN(C(=O)CCN(C)C)CC3)cn2c1N(C)c1nc(-c2ccc(F)cc2)cs1` [Compound 130, 3-(dimethylamino)-1-(4-(2-ethyl-3-((4-(4-fluorophenyl)thiazol-2-yl)(methyl)amino)imidazo[1,2-a]pyridin-6-yl)piperidin-1-yl)propan-1-one], the IC50 was 100 to 500 nM. To `[2H]C([2H])([2H])N(c1nc(-c2ccc(F)cc2)cs1)c1c(CC)nc2ccc(C3CCN(S(C)(=O)=O)CC3)cn12` [Compound 102, 4-(4-fluorophenyl)-N-(2-ethyl-6-(1-(methylsulfonyl)piperidin-4-yl)imidazo [1,2-a]pyridin-3-yl)-N-(d3-methyl)thiazol-2-amine] belongs above 1000 nM; to `CCc1nc2ccc(N3CCN(CC(=O)N4CC(CO)C4)CC3)cn2c1N(C)c1nc(-c2ccc(F)cc2)c(CO)s1` [Compound 146, 2-(4-(2-ethyl-3-((4-(4-fluorophenyl)-5-(hydroxymethyl)thiazol-2-yl)(methyl)amino)imidazo[1,2-a]pyridin-6-yl)piperazin-1-yl)-1-(3-(hydroxymethyl)azetidin-1-yl)ethanone], 500 to 1000 nM. To `CCOC(=O)C(=O)N1CCN(c2ccc3nc(CC)c(N(C)c4nc(-c5ccc(F)cc5)cs4)n3c2)CC1` [Compound 228, ethyl 2-(4-(2-ethyl-3-((4-(4-fluorophenyl)thiazol-2-yl)(methyl)amino)imidazo[1,2-a]pyridin-6-yl)piperazin-1-yl)-2-oxoacetate] belongs above 1000 nM. The figure for `CCc1nc2ccc(C3=CCN(S(C)(=O)=O)CC3)cn2c1N(C)c1nc(-c2ccc(C(C)(C)C)cc2)cs1` [Compound 70, 4-(4-tert-butylphenyl)-N-(2-ethyl-6-(1-(methylsulfonyl)-1,2,3,6-tetrahydropyridin-4-yl)imidazo[1,2-a]pyridin-3-yl)-N-methylthiazol-2-amine] is above 1000 nM; for `CCc1nc2ccc(C3CCN(CC(=O)N4CCC(CO)C4)CC3)cn2c1N(C)c1nc(-c2ccc(F)cc2)cs1` (centres unmarked) [Compound 117, 2-(4-(2-ethyl-3-((4-(4-fluorophenyl)thiazol-2-yl)(methyl)amino)imidazo[1,2-a]pyridin-6-yl)piperidin-1-yl)-1-(3-(hydroxymethyl)pyrrolidin-1-yl)ethanone] it is 100 to 500 nM. `CCc1nc2ccc(C3=CCN(S(C)(=O)=O)CC3)cn2c1N(C)c1nc(-c2ccc(F)c(F)c2)cs1` [Compound 73, 4-(3,4-difluorophenyl)-N-(2-ethyl-6-(1-(methylsulfonyl)-1,2,3,6-tetrahydropyridin-4-yl)imidazo[1,2-a]pyridin-3-yl)-N-methylthiazol-2-amine] had an IC50 above 1000 nM. The molecule `CCc1nc2ccc(N3CCN(CC(=O)N4CC(F)C4)CC3)cn2c1N(C)c1nc(-c2ccc(F)cc2)cs1` [Compound 28, 2-(4-(2-ethyl-3-((4-(4-fluorophenyl)thiazol-2-yl)(methyl)amino)imidazo[1,2-a]pyridin-6-yl)piperazin-1-yl)-1-(3-fluoroazetidin-1-yl)ethanone] registered an IC50 of 100 to 500 nM.

`CCc1nc2ccc(C3CCN(S(C)(=O)=O)CC3)cn2c1N(C)c1nc(-c2ccc(C(F)(F)F)cc2)cs1` [Compound 84, N-(2-ethyl-6-(1-(methylsulfonyl)piperidin-4-yl)imidazo [1,2-a]pyridin-3-yl)-N-methyl-4-(4-(trifluoromethyl)phenyl) thiazol-2-amine] showed an IC50 above 1000 nM. The figure for `CCOC(=O)C(C)N1CCN(c2ccc3nc(CC)c(N(C)c4nc(-c5ccc(F)cc5)cs4)n3c2)CC1` (centres unmarked) [Compound 37, ethyl 2-(4-(2-ethyl-3-((4-(4-fluorophenyl)thiazol-2-yl)(methyl)amino)imidazo[1,2-a]pyridin-6-yl)piperazin-1-yl)propionoate] is above 1000 nM; for `CCc1nc2ccc(C3CCN(S(C)(=O)=O)CC3)cn2c1N(C)c1nc(-c2ccc(F)cc2C#N)c(C)s1` [Compound 97, 2-(2-((2-ethyl-6-(1-(methylsulfonyl)piperidin-4-yl)imidazo [1,2-a]pyridin-3-yl)(methyl)amino)-5-methylthiazol-4-yl)-5-fluorobenzonitrile] it is 100 to 500 nM; for `CCc1nc2ccc(N3CCN(CC(=O)NC)CC3)cn2c1N(C)c1nc(-c2ccc(F)cc2C#N)c(C)s1` [Compound 163, 2-(4-(3-((4-(2-cyano-4-fluorophenyl)-5-methylthiazol-2-yl)(methyl)amino)-2-ethylimidazo[1,2-a]pyridin-6-yl)piperazin-1-yl)-N-methylacetamide] it is 500 to 1000 nM. The figure for `CCc1nc2ccc(N3CCN(C(=O)C4CCN(C(=O)OC(C)(C)C)C4)CC3)cn2c1N(C)c1nc(-c2ccc(F)cc2)cs1` (centres unmarked) [Compound 45, tert-butyl 3-(4-(2-ethyl-3-((4-(4-fluorophenyl)thiazol-2-yl)(methyl)amino)imidazo[1,2-a]pyridin-6-yl)piperazine-1-carbonyl)pyrrolidine-1-carboxylate] is above 1000 nM; for `CCc1nc2ccc(C3CCN(C(=O)CN(C)C)CC3)cn2c1N(C)c1nc(-c2ccc(F)cc2)cs1` [Compound 129, 2-(dimethylamino)-1-(4-(2-ethyl-3-((4-(4-fluorophenyl)thiazol-2-yl)(methyl)amino)imidazo[1,2-a]pyridin-6-yl)piperidin-1-yl)ethanone] it is 100 to 500 nM.
